For the test, the target named is T1, AII receptor (Rattus norvegicus, UniProt P25095).
T1 construct: adipose tissue from the epididymal and retroperitoneal depots is quickly excised; from tissue; host or cells: membranes of collagenase-isolated adipocytes from epididymal and retroperitoneal fat of male Sprague-Dawley rats
T1 sequence (P25095 1-359): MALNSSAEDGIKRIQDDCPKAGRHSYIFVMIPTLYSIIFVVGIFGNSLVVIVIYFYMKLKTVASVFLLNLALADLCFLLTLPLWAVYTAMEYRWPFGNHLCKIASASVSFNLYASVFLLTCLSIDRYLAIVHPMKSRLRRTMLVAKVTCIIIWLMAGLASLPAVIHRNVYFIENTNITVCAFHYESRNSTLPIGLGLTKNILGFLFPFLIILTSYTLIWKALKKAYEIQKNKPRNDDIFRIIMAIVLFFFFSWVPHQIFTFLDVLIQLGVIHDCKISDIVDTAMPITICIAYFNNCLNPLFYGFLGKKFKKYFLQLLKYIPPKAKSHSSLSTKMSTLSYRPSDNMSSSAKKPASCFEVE
The experiment in a line: Displacement of 125I[Sar,Ile]AII binding in rat epididymal fat cell membranes. Conditions: rat epididymal fat cell membranes (Table 8). The text has this:
The experimental design involves determining the binding characteristics of adipocyte membranes harvested from two different anatomic sites at three different ages. Male Sprague-Dawley rats (Charles River Laboratories, Wilmington, Mass.) are used at 40, 70 and 100 days of age. Rats are killed by carbon dioxide inhalation on the morning of the experiment, and adipose tissue from the epididymal and retroperitoneal depots is quickly excised and placed in cold saline. The spermatic artery and vein are removed from the epididymal fat, and brown fat deposits are dissected away from the retroperitoneal depot. The adipose tissue is weighed, minced into small pieces, and approximately 10 g each transferred to a flask containing 25 ml of Krebs-Ringer-bicarbonate buffer (KRB), 6 mM glucose and 50 mg of collagenase, pH 7.4. […] Intact adipocytes dissociated from the tissue pass freely into waiting tubes, while the undigested tissue is trapped on the screen. The tubes containing the adipocytes are washed an additional 4× with 20 ml each of cold Tris buffer (10 mM Tris HCl, pH 8.0) by first allowing the adipocytes to separate from the digestion medium by flotation, removing the infranatant through polyethylene tubing attached to a syringe, resuspending the cells in the Tris buffer, and repeating this procedure. Adipocyte membranes used for binding studies are prepared as follows. […] Following centrifugation, the fat cake and supernatant are carefully removed, and the pellet resuspended in 1 ml of Tris buffer. Protein content of the high speed pellet is determined, the resuspended protein is either assayed immediately or stored at -75° before binding assays are performed. […] The assay is initiated by the addition of the membrane protein, followed by incubation at 22° C. for 30 minutes in a slowly shaking water bath. Separation of bound from free radioactivity is achieved using any appropriate filtration apparatus. We use either a Millipore or Brandel model harvesting apparatus containing a Durapore or Whatman GF/B filter, followed by 6 additional rinses with 5 ml each of cold saline. The filters are placed in tubes, and radioactivity measured in a gamma scintillation counter programmed to correct for the half-life of the isotope. Using this experimental protocol, both the affinity (KD) and number of binding sites (Bmax) for angiotensin II on the adipocyte membrane can be calculated. The relative affinities of different anatomically distinct adipocyte membranes for a variety of peptide and nonpeptide antagonists can also be determined. […] Concentration ranges can be altered dependent upon the affinity of the particular antagonist for the fat cell membrane receptor.

Setting [1] is: read-out: Epididymal IC50 for displacement of 125I[Sar,Ile]AII binding.
Where [2] appears, read: Epididymal IC50 for displacement of 125I[Sar,Ile]AII binding.

Where a name gives a salt, the structure may show the parent alone. Read-outs that look alike come from different tables or passages of the source.

As to “2-butyl-3,5,7,8-tetrahydro-3-[[2'-(1H-tetrazol-5-yl)[1,1'-biphenyl]-4-yl]methyl]-pyrido[4,3-d]pyrimidin-6(4H)-carboxylic acid phenylmethyl ester”, the IC50 under setting [1] was determined as 17.9 nM.

As for “2-butyl-5,6,7,8-tetrahydro-6-(2-hydroxy-2-methyl-1-oxopropyl)-3-[[2'-(1H-tetrazol-5-yl)[1,1'-biphenyl]-4-yl]methyl]-4(3H)-quinazolinone”, the half-inhibitory concentration (IC50) under setting [1] was 1.36 nM. On to `CCCCc1nc2ccc(C3(C(=O)OC)CC4CCCN4O3)cc2c(=O)n1Cc1ccc(-c2ccccc2-c2nnn[nH]2)cc1` (mixture of isomers) [trans-(+/-)-2-[2-butyl-3,4-dihydro-4-oxo-3-[[2'-(1H-tetrazol-5-yl)[1,1'-biphenyl]-4-yl]methyl]-6-quinazolinyl]hexahydropyrrolo[1,2-b]isoxazole-2-carboxylic acid methyl ester monohydro], for which the IC50 under setting [2] was determined as 23.5 nM. With `CCCCc1nc2ccc(C3(C)NN[C@H]4C(=O)N(C)C(=O)[C@H]43)cc2c(=O)n1Cc1ccc(-c2ccccc2-c2nn[nH]n2)cc1` (relative stereo) [(3aα,6aα)-3-[2-butyl-3,4-dihydro-4-oxo-3-[[2'-(1H-tetrazol-5-yl)[1,1'-biphenyl]-4-yl]methyl]-6-quinazolinyl]-2,3,3a,6a-tetrahydro-3,5-dimethylpyrrolo[3,4-c]pyrazole-4,6-(1H,5H)-dione], the half-inhibitory concentration (IC50) under setting [1] is 550 nM. `CCCCc1nc2ccc(C(C)(O)C3CCN(C)C3=O)cc2c(=O)n1Cc1ccc(-c2ccccc2-c2nn[nH]n2)cc1` (single isomer, unassigned) [2-butyl-6-[1-hydroxy-1-(1-methyl-2-oxo-3-pyrrolidinyl)ethyl]-3-[[2'-(1H-tetrazol-5-yl)[1,1'-biphenyl]-4-yl]methyl]-4(3H)-quinazolinone isomer 1]: under setting [2], the half-maximal inhibitory concentration (IC50) turned out to be 7.9 nM. On to `CCCCc1nc2ccc(C(O)C3CCCS3(=O)=O)cc2c(=O)n1Cc1ccc(-c2ccccc2-c2nn[nH]n2)cc1` (single isomer, unassigned) [2-butyl-6-[hydroxy(tetrahydro-2-thienyl)methyl]-3-[[2'-(1H-tetrazol-5-yl)[1,1'-biphenyl]-4-yl]methyl]-4(3H)-quinazolinone S,S-dioxide isomer 1], for which the IC50 under setting [2] worked out at 1.68 nM. Same read-out and setting: to `CCCCc1nc2ccc(C(O)C3CCCS3(=O)=O)cc2c(=O)n1Cc1ccc(-c2ccccc2-c2nn[nH]n2)cc1` (single isomer, unassigned) [2-butyl-6-[hydroxy(tetrahydro-2-thienyl)methyl]-3-[[2'-(1H-tetrazol-5-yl)[1,1'-biphenyl]-4-yl]methyl]-4(3H)-quinazolinone S,S-dioxide isomer 2] belongs 3.14 nM. Regarding `CCCCc1nc2ccc(C3=NN4CCCCC4C3)cc2c(=O)n1Cc1ccc(-c2ccccc2-c2nn[nH]n2)cc1` (centres unmarked) [2-butyl-6-(3,3a,4,5,6,7-hexahydropyrazolo[1,5-a]pyridin-2-yl)-3-[[2'-(1H-tetrazol-5-yl)[1,1'-biphenyl]-4-yl]methyl]-4(3H)-quinazolinone], under setting [2], the IC50 is 86.7 nM. Same read-out and setting: then `CCCCc1nc2ccc(COc3ccccc3)cc2c(=O)n1Cc1ccc(-c2ccccc2-c2nnn[nH]2)cc1` [2-butyl-6-(phenoxymethyl)-3-[[2'-(1H-tetrazol-5-yl)[1,1'-biphenyl]-4-yl]methyl]-4(3H)-quinazolinone], with 163 nM; and `CCCCc1nc2ccc(C3CC(c4ccc(C)cc4)=NO3)cc2c(=O)n1Cc1ccc(-c2ccccc2-c2nnn[nH]2)cc1` (centres unmarked) [2-butyl-6-[4,5-dihydro-3-(4-methylphenyl)-5-isoxazolyl]-3-[[2'-(1H-tetrazol-5-yl)[1,1'-biphenyl]-4-yl]methyl]-4(3H)-quinazolinone], with 126 nM. In turn, `CCCCc1nc2ccc(COc3ccccn3)cc2c(=O)n1Cc1ccc(-c2ccccc2-c2nn[nH]n2)cc1` [2-butyl-6-[(2-pyridinyloxy)methyl]-3-[[2'-(1H-tetrazol-5-yl)[1,1'-biphenyl]-4-yl]methyl]-4(3H)-quinazolinone hydrochloride] had a half-maximal inhibitory concentration (IC50) under setting [2] of 17.2 nM.

The record behind these values is patent publication US5830909A (American Cyanamid Company, priority 1996, dated 1998).
